Experimental data published in US6667311B2, “Nitrogen substituted biaryl purine derivatives as potent antiproliferative agents” (Albany Molecular Research, Inc., priority 2001, dated 2003).
“Also recorded” adds a separate entry of the source. Where two headings read alike, the source gives them in different places. Values belong to the molecule of their own block, whether it stands above or below them.

Columns and labels:
[1] = system: CAKI-1; assay: NCI growth inhibition, CAKI-1; type: cell-based, human; conditions: Homo sapiens; CAKI-1 (Renal)
[2] = system: Tumor Cells in Hollow Fibers; assay: NCI Hollow Fiber Assay; type: in vivo
[3] = system: SK-MEL-5; assay: NCI growth inhibition, SK-MEL-5; type: cell-based, human; conditions: Homo sapiens; SK-MEL-5 (Melanoma)
[4] = system: SK-OV-3; assay: NCI growth inhibition, SK-OV-3; type: cell-based, human; conditions: Homo sapiens; SK-OV-3 (Ovarian)
[5] = system: HeLa S-3 cells; assay: Inhibition of cell growth, HeLa cells (SRB); type: cell-based, human; conditions: for IC50: Table 2, growth inhibition, 2 days, replicate experiments, read-out: CI50 HeLa Cells
Protocol: Growth inhibition (GI50) values were measured with HeLa S-3 cells selected for growth on plastic. […] One day later, a control plate was fixed by addition of TCA to 5%. After five rinses with tap water the plate was air dried and stored at 4° C. Test compounds were added to the remaining plates at 10-fold dilutions between 0.01 and 100 μM. Two days later all plates were fixed as described above. Cells were then stained by the addition of 100μl per well of 0.4% sulforhodamine B (SRB) in 1% acetic acid for 30 min at 4° C. Wells were then quickly rinsed 5×with acetic acid (1%) and allowed to air dry. The SRB was then solubilized by the addition of 100 μl per well of unbuffered 10 mM Tris base. Dye was quantified by measuring absorbance at 490 nm on a Molecular Devices kinetic microplate reader. Growth at each inhibitor concentration relative to the untreated control was calculated according to the following equation: percent growth=100×(T−To)/(C−To), where T was the average optical density (OD) of the test wells after 2 days of treatment, To was the average OD of the wells in the control plate on day 0 and C was the average OD of untreated wells. Plots of percent growth versus inhibitor concentration were used to determine the GI50.

[6] = system: NCI-H460; assay: NCI growth inhibition, NCI-H460; type: cell-based, human; conditions: Homo sapiens; NCI-H460 (Non-Small Cell Lung)
[7] = system: MALME-3M; assay: NCI growth inhibition, MALME-3M; type: cell-based, human; conditions: Homo sapiens; MALME-3M (Melanoma)
[8] = target: CyclinA/cdk2 (Homo sapiens, UniProt P24941); assay: CyclinA/cdk2 protein kinase assay (histone H1 phosphorylation, immunopurified complex from HeLa); conditions: read-out: IC50 CyclinA cdk2; Table 2; replicate experiments
[9] = target: T1, CyclinB/cdk1 (Homo sapiens, UniProt P06493); assay: CyclinB/cdk1 protein kinase assay (histone H1 phosphorylation, immunopurified complex from HeLa); type: biochemical; conditions: Table 2; replicate experiments
T1 construct: Monoclonal antibody against cyclinB (GNS1) is added to the supernatant; endogenous in cells

[10] = target: CyclinE/cdk2 (Homo sapiens, UniProt P24941); assay: CyclinE/cdk2 protein kinase assay (histone H1 phosphorylation, immunopurified complex from HeLa); conditions: read-out: IC50 CyclinE cdk2; Table 2; replicate experiments

T1 sequence (P06493 whole entry): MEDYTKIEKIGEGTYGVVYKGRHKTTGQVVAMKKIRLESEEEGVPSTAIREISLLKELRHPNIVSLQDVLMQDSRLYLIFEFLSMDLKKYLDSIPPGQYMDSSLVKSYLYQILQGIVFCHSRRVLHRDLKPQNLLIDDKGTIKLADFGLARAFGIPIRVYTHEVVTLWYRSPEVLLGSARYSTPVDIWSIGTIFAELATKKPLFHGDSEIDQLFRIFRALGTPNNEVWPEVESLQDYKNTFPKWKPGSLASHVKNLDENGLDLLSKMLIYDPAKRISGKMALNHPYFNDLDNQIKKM
T1 sequence (P14635 whole entry partner): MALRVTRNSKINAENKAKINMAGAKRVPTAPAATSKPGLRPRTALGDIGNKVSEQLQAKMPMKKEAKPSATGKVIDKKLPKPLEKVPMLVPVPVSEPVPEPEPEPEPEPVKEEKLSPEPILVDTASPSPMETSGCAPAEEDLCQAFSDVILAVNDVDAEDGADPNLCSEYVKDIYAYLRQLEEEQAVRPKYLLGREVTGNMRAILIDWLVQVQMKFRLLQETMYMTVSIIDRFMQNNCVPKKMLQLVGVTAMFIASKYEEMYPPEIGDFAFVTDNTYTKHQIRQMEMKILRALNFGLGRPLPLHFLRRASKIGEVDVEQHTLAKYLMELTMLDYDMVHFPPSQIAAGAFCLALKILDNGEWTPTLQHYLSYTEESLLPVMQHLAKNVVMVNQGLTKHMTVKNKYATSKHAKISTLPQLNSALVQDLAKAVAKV

Compound: CC(C)n1cnc2c(NCc3ccc(-c4ccsc4)cc3)nc(N[C@H]3CC[C@H](N)CC3)nc21 [Compound 12]
GI50 [1]: 38 nM
Cell Types Killed [2]: H522, MDA-MB-435
GI50 [3]: 14 nM
GI50 [4]: 18 nM
IC50 [5]: 0.1 nM
GI50 [6]: 15 nM
GI50 [7]: 10 nM

IC50 [5]: 500 nM
Compound: CC[C@H](CO)Nc1nc(NCc2ccc(-c3ccccc3)cc2)c2ncn(C(C)C)c2n1 [Compound 73]

Compound: CC(C)n1cnc2c(NCc3ccc(-c4ccccn4)cc3)nc(N[C@H]3CC[C@H](N)CC3)nc21 [Compound 78]
Cell Types Killed [2]: H23, H522, OVCAR3, SF29

Compound: CC(=O)N[C@H]1CC[C@H](Nc2nc(NCc3ccc(-c4ccccn4)cc3)c3ncn(C(C)C)c3n2)CC1 [Compound 79]
IC50 [8]: 10000 nM

Compound: CC(C)n1cnc2c(NCc3ccc(-c4ccccc4)nc3)nc(N[C@H]3CC[C@H](N)CC3)nc21 [Compound 86]
Cell Types Killed [2]: OVCAR 3, OVCAR 5, H522

IC50 [5]: 300 nM
Compound: CC(C)n1cnc2c(NCc3ccc(-c4ccccn4)nc3)nc(N[C@H]3CC[C@H](N)CC3)nc21 [Compound 93]

Compound: CC(=O)N[C@H]1CC[C@H](Nc2nc(NCc3ccc(-c4ccccn4)nc3)c3ncn(C(C)C)c3n2)CC1 [Compound 94]
Cell Types Killed [2]: COLO 205, OVCAR-3, H522

IC50 [9]: 10000 nM
Compound: CC(=O)N[C@H]1CC[C@H](Nc2nc(NCc3ccc(-c4ccc(C)cc4)cc3)c3ncn(C(C)C)c3n2)CC1 [Compound 97]

Compound: CC(C)n1cnc2c(NCc3ccc(-c4cccnc4)cc3)nc(N[C@H]3CC[C@H](N)CC3)nc21 [Compound 103]
Cell Types Killed [2]: OVCAR 3,OVCAR 5,; also recorded: H522, MDA-MB-435, SF295

IC50 [8]: 10000 nM
Compound: CC(=O)N[C@@H](C)CNc1nc(NCc2ccc(-c3ccccc3)cc2)c2ncn(C(C)C)c2n1 [Compound 108]

IC50 [5]: 20 nM
Compound: CC(=O)N[C@H]1CC[C@H](Nc2nc(NCc3ccc(-c4cccc(Cl)c4)cc3)c3ncn(C(C)C)c3n2)CC1 [Compound 110]

IC50 [10]: 70 nM
IC50 [8]: 200 nM
Compound: CC(C)n1cnc2c(NCc3ccc(-c4cccs4)cc3)nc(N[C@H]3CC[C@H](N)CC3)nc21 [Compound 111]

Compound: CC(=O)N[C@H]1CC[C@H](Nc2nc(NCc3ccc(-c4ccsc4)cc3)c3ncn(C(C)C)c3n2)CC1 [Compound 113]
Cell Types Killed [2]: H23, H522, OVCAR-3

Compound: CC(=O)N[C@H]1CC[C@H](Nc2nc(NCc3ccc(-c4ccsc4)nc3)c3ncn(C(C)C)c3n2)CC1 [Compound 124]
Cell Types Killed [2]: H23, H522, OVCAR-3,; also recorded: MDA-MB-435

GI50 ([5]; Homo sapiens, HeLa S3, Table 3, reference compounds in comparison): 7000 to 15000 nM
Compound: CC[C@H](CO)Nc1nc(NCc2cccnc2)c2ncn(C(C)C)c2n1 [Compound 127, reference compound]

IC50 ([5]; Homo sapiens, HeLa S3, 48 h): 400 nM
Compound: CC(=O)N[C@H]1CC[C@H](Nc2nc(NCc3ccc(-c4cccc(C)c4)cc3)c3ncn(C(C)C)c3n2)CC1 [Compound 178]

IC50 ([5]; Homo sapiens, HeLa S3, 48 h): 400 nM
Compound: COc1cccc(-c2ccc(CNc3nc(N[C@H]4CC[C@H](NC(C)=O)CC4)nc4c3ncn4C(C)C)cc2)c1 [Compound 180]

IC50 ([5]; Homo sapiens, HeLa S3, 48 h): 400 nM
Compound: CC(C)n1cnc2c(NCc3ccc(-c4ccccc4)cn3)nc(N[C@H]3CC[C@H](N)CC3)nc21 [Compound 229]
